In patent US11415513B2, “Method for determining the degree of sensitivity of a strain of fungus to an antifungal agent” (UNIVERSITE GRENOBLE ALPES, priority 2015, dated 2022):
Values after ≈ are worked out from the molar mass of the structure shown.

Legend:
[1] = tested on: strain 8/21 of C. parapsilosis; assay: Etest method (MIC); assay type: cell-based, Candida parapsilosis; conditions: RPMI medium plates, 24 h at 35° C.; for MIC: Lodderomyces parapsilosis
Description: (§1) The Etest® method is a commercial test for determining the sensitivity of a strain, most frequently used routinely in clinical mycology laboratories.
(§2) The Etest® tests were performed according to the manufacturer's instructions. After distributing a standardised Mac Farland 0.5 inoculum (equivalent of […]) over plates of RPMI medium, said plates were incubated for 24 h at 35° C., with the exception of C. glabrata in which case the incubation was extended to 48 h so as to be able to determine the minimum inhibitory concentration (MIC).
(§3) The results of the MICs obtained were interpreted in accordance with the tables of the CLSI (Clinical and Laboratory Standards Institute) and/or of EUCAST (European Committee on Antimicrobial Susceptibility Testing) (Arendrup M C, Cuenca-Estrella M, Lass-Flörl C, Hope W W (2014) Breakpoints for antifungal agents: an update from EUCAST focussing on echinocandins against Candida spp and triazoles against Aspergillus spp. Drug Resist Updat 16(6):81-95. doi:10.1016/j.drup.2014.01.001) (cf. Table 2 taken from Maubon D, Garnaud C, Calandra T, et al. (2014) Resistance of Candida spp. to antifungal drugs in the ICU: where are we now? Intensive Care Med. doi: 10.1007/s00134-014-3404-7) which list the clinical thresholds (CBPs) for the most common species of yeast of the genus Candida as a function of different antifungal agents, or according to the table of epidemiological thresholds (ECVs).

[2] = tested on: strain DSY296 of C. albicans; assay: Sensitivity test by HCA microscopy (chitin level, Calcofluor White); assay type: cell-based, Candida albicans; conditions: vs cells in the absence of antifungal agent; 6.5 h at 30° C., SC medium; concentration gradient of Table 1
Description: (§4) The strains of Candida were incubated beforehand at 30° C. overnight in a yeast extract medium—peptone dextrose (YPD) (1% bacto peptone, 0.5% yeast extract, 2% glucose, 1.5% agar).
(§5) Yeast colonies were then removed from YPD medium plates and suspended in a 0.9% NaCl saline solution, in which the cell concentration was estimated by optical microscopy using Kova counting slides. […]
(§6) A step of acquiring images by automated fluorescence microscopy (ScanR screening station, Olympus), using a 40× lens and a CFW filter, made it possible to obtain 30 images per well so as to capture enough cells to provide statistically significant data. These images were analysed by software (ScanR analysis software, Olympus). Firstly, the background noise was processed so as to improve the contrast between the fluorescence of the yeasts and background noise. […] Segmentation of the fluorescent elements present in each of the acquired images was then performed using an algorithm predefined in the software, making it possible to determine the limit of each element on the basis of the fluorescence intensity of said element. […]
(§7) Each element then corresponding to a yeast, it was thus possible, on the basis of these elements predefined beforehand, to define the fluorescence intensity for each of the yeasts, this intensity being directly correlated with the chitin content of their wall. […]

[3] = tested on: strain 8/21 of C. parapsilosis; assay: as above; assay type: cell-based, Candida parapsilosis; conditions: vs cells in the absence of antifungal agent; 6.5 h at 30° C., SC medium; concentration gradient of Table 1
Description: as §4, §5, §6, §7

[4] = tested on: strain SC5314 of C. albicans; assay: Sensitivity test by HCA microscopy (chitin level, Calcofluor White; cell count); assay type: cell-based, Candida albicans; conditions: 6.5 h at 30° C., SC medium; for decrease of the number of cells / increase of the chitin level in the wall of the cells: vs cells in the absence of antifungal agent, concentration gradient of Table 1
Description: as §4
Yeast colonies were then removed from YPD medium plates and suspended in a 0.9% NaCl saline solution, in which the cell concentration was estimated by optical microscopy using Kova counting slides.
A dilution was performed to obtain 15 ml of an inoculum at 3×10^6 CFU/ml, in a synthetic complete (SC) medium at pH 7 (2% glucose, 0.5% ammonium sulfate, 0.17% nitrogen-containing yeast base, 0.2% synthetic complete mixture, and 10% HEPES 1.5M pH 7.2) for C. albicans, C. parapsilosis, C. tropicalis and C. krusei, and in a solution of RPMI 1640 pH 7.3 (10% HEPES 1M pH 7.2) for C. glabrata, so as to reduce the formation of septa and clusters.
1 ml of inoculum was then added to 2 ml of antifungal solution prepared in an SC or RPMI medium depending on the species of fungus, so as to obtain a final concentration of yeast of 10^6 CFU/ml and the desired concentration of antifungal agent according to table 1.
After homogenisation, the cultures were placed at 30° C. at 200 rpm, with the exception of cultures of C. glabrata, which were placed at 35° C. at 200 rpm, and incubated for a period of 6.5 h or 24 h.
After incubation, 100 μl of the culture of fungi obtained above were transferred in triplicate to 96-well plates, and 2.5 μl of Calcofluor White (CFW) were added to each well so as to mark the chitin of the cell walls of the yeasts.
A step of acquiring images by automated fluorescence microscopy (ScanR screening station, Olympus), using a 40× lens and a CFW filter, made it possible to obtain 30 images per well so as to capture enough cells to provide statistically significant data. These images were analysed by software (ScanR analysis software, Olympus). Firstly, the background noise was processed so as to improve the contrast between the fluorescence of the yeasts and background noise. A pixel threshold was then defined. Segmentation of the fluorescent elements present in each of the acquired images was then performed using an algorithm predefined in the software, making it possible to determine the limit of each element on the basis of the fluorescence intensity of said element. A size parameter was then applied to select the yeasts and eliminate the aggregates and the fluorescent debris.
Each element then corresponding to a yeast, it was thus possible, on the basis of these elements predefined beforehand, to define the fluorescence intensity for each of the yeasts, this intensity being directly correlated with the chitin content of their wall.
On the basis of said defined elements, it was also possible to automatically count the yeasts,
The strain SC5314 of C. albicans was cultivated as described in paragraph I of the Examples section so as to obtain an inoculum at 3×10^6 CFU/ml in 15 ml of SC medium.
2 ml of fluconazole solution prepared in the SC medium were then added to 1 ml of this inoculum so as to obtain a final concentration of yeast of 10^6 CFU/ml and of 16 μg/ml in fluconazole.
The inoculum was treated in the same way so as to obtain cultures of 10^6 CFU/ml and the following concentrations of fluconazole: 0.015 μg/ml, 0.031 μg/ml, 0.062 μg/ml, 0.125 μg/ml, 0.25 μg/ml, 0.5 μg/ml, 1 μg/ml, 2 μg/ml, 4 μg/ml, 8 μg/ml, 16 μg/ml.
After incubation for 6.5 h at 30° C. with stirring at 200 rpm, 100 μl of each culture were removed and transferred to 96-well plates. This procedure was performed in triplicate, and 2.5 μl of CFW were then added to each well.
The chitin level in the cell wall of the yeasts was then measured by […] analysis (HCA) microscopy, as described in paragraph II of the Examples section, in triplicate for each condition of concentration of fluconazole and without fluconazole.

[5] = tested on: strain SC5314 of C. albicans; assay: Etest method (MIC); assay type: cell-based, Candida albicans; conditions: RPMI medium plates, 24 h at 35° C.; for MIC: Candida albicans, SC5314
Description: as §1, §2, §3

SMILES	MIC [1]	phenotype by Etest MIC, interpretation by the EUCAST and CLSI tables [1]	decrease in the chitin level in the wall of the cells [2]	increase in the chitin level in the wall of the cells [3]	phenotype of the strain with respect to the antifungal agent (HCA) [4]	decrease of the number of cells [4]	increase of the chitin level in the wall of the cells [4]	MIC [5]	phenotype by Etest MIC, interpretation by the EUCAST and CLSI tables [5]
OC(Cn1cncn1)(Cn1cncn1)c1ccc(F)cc1F [fluconazole]	8 µg/mL (≈ 26.1 µM)	resistant	less than 20%	less than 10%	sensitive (an increase in the chitin level greater than or equal to 20% is observed compared to the chitin level of a population of cells of said fungus in the absence of antifungal agent, as well as a decrease in the number of cells of at least 0.3 log)	at least 0.3 log	greater than or equal to 20%	0.125 µg/mL (≈ 0.408 µM)	sensitive
C[C@@H](c1ncncc1F)[C@](O)(Cn1cncn1)c1ccc(F)cc1F [voriconazole]	4 µg/mL (≈ 11.5 µM)	resistant	less than 20%	less than 10%	sensitive (an increase in the chitin level greater than or equal to 20% is observed compared to the chitin level of a population of cells of said fungus in the absence of antifungal agent, as well as a decrease in the number of cells of at least 0.3 log)	at least 0.3 log	greater than or equal to 20%	0.012 µg/mL (≈ 0.0344 µM)	sensitive
